# According to patent US6211244A, “Calcium receptor-active compounds” (priority 1995, dated 2001):
# Where “and” joins values, the source holds several entries; their conditions need not be identical. Equal entries are not always repeated. Structures can show the parent of a compound that is named as a salt. Where two headings read alike, the source gives them in different places.
# Target: T1, human calcium receptor (Homo sapiens, UniProt P41180, R990G)
# T1 construct: expressed in transfected cells; host or cells: HEK 293
# T1 sequence (P41180 20-1078 R990G): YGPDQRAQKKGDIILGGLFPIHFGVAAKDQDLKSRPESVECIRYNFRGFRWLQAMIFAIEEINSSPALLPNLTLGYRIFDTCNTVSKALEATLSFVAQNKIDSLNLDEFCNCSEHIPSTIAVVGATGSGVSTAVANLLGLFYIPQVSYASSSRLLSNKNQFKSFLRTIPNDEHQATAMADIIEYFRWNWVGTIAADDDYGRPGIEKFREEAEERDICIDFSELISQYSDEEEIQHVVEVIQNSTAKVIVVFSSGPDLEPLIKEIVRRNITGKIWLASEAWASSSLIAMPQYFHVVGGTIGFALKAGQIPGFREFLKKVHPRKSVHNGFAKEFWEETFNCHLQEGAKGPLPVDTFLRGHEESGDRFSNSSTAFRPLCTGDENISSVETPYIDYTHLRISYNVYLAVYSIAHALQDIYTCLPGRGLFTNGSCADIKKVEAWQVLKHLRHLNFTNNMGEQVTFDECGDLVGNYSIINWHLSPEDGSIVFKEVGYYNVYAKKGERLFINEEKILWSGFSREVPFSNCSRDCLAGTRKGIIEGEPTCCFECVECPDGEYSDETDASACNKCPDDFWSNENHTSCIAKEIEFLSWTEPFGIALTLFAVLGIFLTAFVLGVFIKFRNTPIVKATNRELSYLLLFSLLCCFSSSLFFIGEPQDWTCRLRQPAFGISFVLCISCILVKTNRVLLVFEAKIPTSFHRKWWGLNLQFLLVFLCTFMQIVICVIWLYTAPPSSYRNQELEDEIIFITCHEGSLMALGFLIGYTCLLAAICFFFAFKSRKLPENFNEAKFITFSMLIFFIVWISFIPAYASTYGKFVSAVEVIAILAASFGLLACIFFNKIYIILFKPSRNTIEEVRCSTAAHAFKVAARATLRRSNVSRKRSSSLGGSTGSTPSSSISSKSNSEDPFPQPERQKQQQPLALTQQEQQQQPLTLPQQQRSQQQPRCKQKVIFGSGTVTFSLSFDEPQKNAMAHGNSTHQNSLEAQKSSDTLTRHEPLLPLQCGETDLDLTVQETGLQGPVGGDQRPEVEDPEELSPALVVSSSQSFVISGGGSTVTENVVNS
# Experiment: increases in [Ca^2+ ]i in HEK-293 cells expressing the human calcium receptor (fura-2 loaded HEK 293/pHuPCaR4.0 cells), % activity
# Assay type: cell-based
smiles,measurement,setting,value
CC(NC1CCc2ccccc2C1)c1ccccc1 (mixture of isomers) [Compound 4B],% activity,,45
same,% activity,33 ng/mL,8%
CC(C=Cc1ccccc1)NC(C)c1ccccc1 (mixture of isomers) [Compound 5D],% activity,33 ng/mL,18%
same,% activity,330 ng/mL,62%
CC(NC1CCc2ccccc21)c1cccc2ccccc12 (mixture of isomers) [Compound 9A],% activity,33 ng/mL,56%
same,% activity,330 ng/mL,82%
COc1cccc(C(C)NC(C)c2ccc(C(C)(C)C)cc2)c1 (mixture of isomers) [Compound 13G],% activity,33 ng/mL,82%
same,% activity,330 ng/mL,128%
same,% activity,3300 ng/mL,111%
CC(NC(C)c1ccc(C(C)(C)C)cc1)c1ccccc1 (mixture of isomers) [Compound 13H],% activity,33 ng/mL,36%
same,% activity,330 ng/mL,48%
same,% activity,3300 ng/mL,88%
CC(NC(C)c1ccc2ccccc2c1)c1ccc(C(C)(C)C)cc1 (mixture of isomers) [Compound 13I],% activity,33 ng/mL,3%
same,% activity,330 ng/mL,52%
same,% activity,3300 ng/mL,85%
CC(C)Cc1ccc(C(C)CNC(C)c2cccc3ccccc23)cc1 (mixture of isomers) [Compound 14A],% activity,33 ng/mL,10%
same,% activity,330 ng/mL,78%
same,% activity,3300 ng/mL,98%
CC(O)c1ccc(CNC(C)c2cccc3ccccc23)cc1 (mixture of isomers) [Compound 17B],% activity,33 ng/mL,61%
same,% activity,330 ng/mL,92%
CCC(NC(C)c1cccc2ccccc12)c1ccc(OC)cc1 (mixture of isomers) [Compound 17G],% activity,33 ng/mL,119%
same,% activity,330 ng/mL,128%
same,% activity,3300 ng/mL,125%
Cc1cc(C(C)NC(C)c2cccc3ccccc23)ccc1OCc1ccccc1 (mixture of isomers) [Compound 25X],% activity,33 ng/mL,72%
same,% activity,330 ng/mL,94%
same,% activity,3300 ng/mL,96%
"COc1ccc(C(NC(C)c2cccc3ccccc23)C2CC2)cc1 (single isomer, unassigned) [Compound 17I]",% activity,33 ng/mL,76%
same,% activity,330 ng/mL,97%
same,% activity,3300 ng/mL,118%
"COc1cccc(C(C)NCCC(C)c2ccc(Cl)cc2)c1 (stereo not shown) [5B/5C, N-[3-methyl-3-(4-chlorophenyl)propyl]-1-(3-methoxyphenyl)ethylamine]",% activity,33 ng/mL,20%
same,% activity,330 ng/mL,65%
CC(NC(C)c1cc2ccccc2c2ccccc12)c1cccc2ccccc12 (stereo not shown) [10S/10T],% activity,33 ng/mL,65%
same,% activity,330 ng/mL,86%
CC(NCC1CCc2ccccc2C1)c1cccc2ccccc12 (stereo not shown) [10W/10X],% activity,33 ng/mL,61% and 53%
same,% activity,330 ng/mL,98% and 81%
COc1cccc([C@@H](C)NC(C)CCc2ccccc2Cl)c1 (stereo partly shown) [21C = 4U],% activity,33 ng/mL,76%
same,% activity,330 ng/mL,114%
same,% activity,3300 ng/mL,134%
CC(NCCCc1ccccc1)c1ccccc1 (stereo not shown) [Compound 1D],% activity,330 ng/mL,53%
CC(NCCCC1CCCCC1)c1ccccc1 (stereo not shown) [Compound 1T],% activity,330 ng/mL,76%
CC(NCCCc1ccccc1)c1c[nH]c2ccccc12 (stereo not shown) [Compound 2Q],% activity,33 ng/mL,4%
same,% activity,330 ng/mL,56%
COc1ccccc1C(C)NCCC(c1ccccc1)c1ccccc1 (stereo not shown) [Compound 2S],% activity,33 ng/mL,29%
same,% activity,330 ng/mL,67%
CC(NCCC(c1ccccc1)c1ccccc1)c1ccccc1Cl (stereo not shown) [Compound 2X],% activity,,15
same,% activity,330 ng/mL,66%
CC(NCCC(c1ccccc1)c1ccccc1)c1cccc(Cl)c1 (stereo not shown) [Compound 2Y],% activity,33 ng/mL,10%
same,% activity,330 ng/mL,59%
CC(NCCC(c1ccccc1)c1ccccc1)c1ccccc1F (stereo not shown) [Compound 3A],% activity,33 ng/mL,7%
same,% activity,330 ng/mL,41%
CC(NCCC(c1ccccc1)c1ccccc1)c1cccc(F)c1 (stereo not shown) [Compound 3B],% activity,,15
same,% activity,330 ng/mL,52%
CC(NCCC(c1ccccc1)c1ccccc1)c1ccccc1C(F)(F)F (stereo not shown) [Compound 3D],% activity,,45
same,% activity,33 ng/mL,4%
CC(NCCCc1ccccc1)c1ccccc1 (stereo not shown) [Compound 3H],% activity,330 ng/mL,84%
Cc1ccccc1C(C)NCCC(c1ccccc1)c1ccccc1 (stereo not shown) [Compound 3L],% activity,33 ng/mL,28%
same,% activity,330 ng/mL,81%
Cc1cccc(C(C)NCCC(c2ccccc2)c2ccccc2)c1 (stereo not shown) [Compound 3M],% activity,33 ng/mL,19%
same,% activity,330 ng/mL,64%
CC(NCCC(c1ccccc1)c1ccccc1)c1ccc(O)cc1 (stereo not shown) [Compound 3R],% activity,,45
same,% activity,33 ng/mL,2%
"CC(NCCC(c1ccccc1)c1ccccc1)c1cccc2ccccc12 (stereo not shown) [Compound 3U, N-(3,3-diphenylpropyl)-(1-naphthyl)ethylamine]",% activity,33 ng/mL,57%
same,% activity,330 ng/mL,89%
COc1cccc(C(C)NCc2cccc3ccccc23)c1 (stereo not shown) [Compound 3V],% activity,33 ng/mL,14%
same,% activity,330 ng/mL,56%
"CC(N[C@H](C)c1ccccc1)c1cccc2ccccc12 (stereo partly shown) [Compound 4G, N-[1-(1-naphthyl)ethyl)-1-phenylethylamine]",% activity,33 ng/mL,46%
same,% activity,330 ng/mL,83%
CC(NCc1cccc2ccccc12)c1ccccc1 (stereo not shown) [Compound 4I],% activity,33 ng/mL,9%
same,% activity,330 ng/mL,40%
CC(NCc1ccc2ccccc2c1)c1ccccc1 (stereo not shown) [Compound 4J],% activity,33 ng/mL,8%
same,% activity,330 ng/mL,47%
COc1cccc(C(C)NCCCc2ccccc2F)c1 (stereo not shown) [Compound 4M],% activity,33 ng/mL,34%
same,% activity,330 ng/mL,68%
COc1cccc([C@@H](C)NCCCc2ccc(F)cc2)c1 [Compound 4P],% activity,330 ng/mL,81% and 61%
COc1cccc(C(C)NCCCc2ccccc2C(F)(F)F)c1 (stereo not shown) [Compound 4V],% activity,33 ng/mL,59%
same,% activity,330 ng/mL,93%
CC(COc1ccccc1)NC(C)c1ccccc1 (stereo not shown) [Compound 5G],% activity,33 ng/mL,16%
same,% activity,330 ng/mL,58%
C[C@@H](NCC=C(c1ccccc1)c1ccccc1)c1ccccc1 [Compound 5L],% activity,33 ng/mL,16%
same,% activity,330 ng/mL,60%
CC(NCC=Cc1ccccc1[N+](=O)[O-])c1ccccc1 (stereo not shown) [Compound 5M],% activity,33 ng/mL,21%
same,% activity,330 ng/mL,73%
"CCOc1cccc([C@@H](C)NCCCc2ccccc2)c1 [Compound 6R, (R)-N-(3-phenylpropyl)-1-(3-ethoxyphenyl)ethylamine]",% activity,33 ng/mL,52%
same,% activity,330 ng/mL,94%
"CCOc1cccc([C@@H](C)NCCCc2ccccc2Cl)c1 [Compound 6T, (R)-N-[3-(2-chlorophenyl)propyl]-1-(3-ethoxyphenyl)ethylamine]",% activity,33 ng/mL,78%
same,% activity,330 ng/mL,129%
same,% activity,3300 ng/mL,123%
COc1cccc([C@@H](C)NCCCc2cccc(Cl)c2)c1 [Compound 6X],% activity,33 ng/mL,52%
same,% activity,330 ng/mL,84%
C[C@@H](NCCCc1ccccc1Cl)c1cccc(OC(F)(F)F)c1 [Compound 7U],% activity,330 ng/mL,49%
CC(=O)c1cccc(C(C)NCCCc2ccccc2)c1 (stereo not shown) [Compound 7W],% activity,330 ng/mL,76%
COc1cccc(C(C)NCCCC2CCCCC2)c1 (stereo not shown) [Compound 7X],% activity,330 ng/mL,85%
COc1cc(OC)cc(C(C)NCCCc2ccccc2)c1 (stereo not shown) [Compound 8A],% activity,330 ng/mL,54%
"CSc1cccc(C(C)NCCCc2ccccc2)c1 (stereo not shown) [Compound 8J, N-(3-phenylpropyl)-1-(3-thiomethylphenyl)ethylamine hydrochloride]",% activity,33 ng/mL,77%
same,% activity,330 ng/mL,104%
CSc1cccc(C(C)NCCCc2ccccc2Cl)c1 (stereo not shown) [Compound 8K],% activity,33 ng/mL,81%
same,% activity,330 ng/mL,98%
